# From patent publication US5965533A, “Atrial natriuretic peptide (ANP) as an additive to peritoneal dialysis solutions” (Baxter International Inc., priority 1997, dated 1999)
# What was measured:
# sheep = test: ANP in 4.25% dextrose DIANEAL peritoneal dialysis solution in conscious sheep, 6 hour dwell; assay type: in vivo; settings: mean, n = 5
# Method: In a second experiment performed on sheep, ANP was added to a 4.25% dextrose DIANEAL® solution to provide a final concentration of ANP in the solution of […]. The dialysis solution was then infused into the peritoneal cavity of the sheep in 50 ml/kg BW volumes. The dwell time periods were 6 hours; the sheep remained conscious.
# wherein pl. vol. is plasma volume; Vo is the volume of the peritoneal cavity before the commencement of the dialysis; V6 is the volume of the peritoneal cavity after six hours; LFR is lymph flow rate; Bl. rec. is blood recovery; and PC rec. is peritoneal cavity recovery.
# rats = test: Intraperitoneally administered ANP in peritoneal dialysis solution, transport characteristics in rats, 4 hour dwell; assay type: in vivo, rat
# Method: A first experiment was performed to assess the effect of intraperitoneal administered ANP on peritoneal dialysis transport characteristics in rats. In this study, a dose of 9 μg ANP/kg BW of rat was mixed in a base solution of 2.5% dextrose DIANEAL® solution. The rats were injected with 90 ml/kg BW of either the above solution with the ANP additive or an unaltered control DIANEAL® solution.
# Blood samples were taken before and after the 4 hour dwell period. Dialysate samples were collected at the start of the dwell and every 2 hours thereafter. All samples were analyzed for urea nitrogen (UN), sodium (Na), glucose, protein (prtn), and osmolality (Osm). At the end of the 4 hour dwell period, the rats were sacrificed, the abdominal walls excised, and the effluents collected and weighed.
# To prepare the above ANP solution, 250 cc of DIANEAL® PD-2 solution was transferred into a 250 ml empty bag (VIAFLEX®). 10 cc of DIANEAL® PD-2 solution was injected into a vial containing […] of ANF (atrial natriuretic factor--yANF,rat,28AA sold by Peninsula Laboratories, Inc.). 1.25 cc of the DIANEAL®/ANF solution was then withdrawn with a needle and syringe and injected into the 250 ml bag containing the DIANEAL® base solution through a 0.22 μm sterile filter. The bag was then enclosed with a sampling site coupler. The control solution was similarly transferred into a new 250 ml bag (VIAFLEX®) and enclosed with a sampling site coupler.
# [1] = ANP 1×10^31 7 M in 4.25% dextrose DIANEAL
# [2] = ANP as additive versus control DIANEAL solution, Table 1 and FIGS. 1 and 2
# [3] = rat, protein, 9 μg ANP/kg BW, 4 hour, mean ± SD
# [4] = rat, urea nitrogen, 9 μg ANP/kg BW, 4 hour, mean ± SD
substance,measurement,setting,value
atrial natriuretic peptide [ANP],Fl. loss,sheep; [1],13.39 mL/kg
same,LFR (lymph flow rate),sheep; [1],6.45 mL/kg
same,NUF (net ultra filtration),sheep; [1],22.05 mL/kg
same,PC rec. (peritoneal cavity recovery),sheep; [1],82.12%
same,Total rec.,sheep; [1],93.81%
same,V6 (volume of the peritoneal cavity after six hours),sheep; [1],0.07246 L/kg
same,pl. vol. (plasma volume),"sheep; ANP in 4.25% dextrose DIANEAL, 50 ml/kg BW",52.70 mL/kg
same,Bl. rec. (blood recovery),sheep; ANP in 4.25% dextrose DIANEAL,11.69%
same,effect on net ultrafiltration (in words),rats; [2],increases
same,effect on sodium clearance (in words),rats; [2],increases
same,nUF (net ultrafiltration),"rats; rat, 9 μg ANP/kg BW in 2.5% dextrose DIANEAL, 90 ml/kg BW i.p., 4 hour dwell, mean ± SD",8.17 ± 0.52 mL
same,Osm (osmolality),"rats; rat, 9 μg ANP/kg BW in 2.5% dextrose DIANEAL, 4 hour sample, mean ± SD",308.0 ± 3.5 mOsm/kg
same,D/D0 (glucose),"rats; rat, glucose, 9 μg ANP/kg BW, 4 hour, mean ± SD",0.363 ± 0.024
same,Clearance (prtn),rats; [3],1.379 ± 0.117 µL/min
same,D/P (prtn),rats; [3],0.0106 ± 0.0009
same,Clearance (Na),"rats; rat, sodium, 9 μg ANP/kg BW, 4 hour, mean ± SD",0.1110 ± 0.0027 mL/min
same,Clearance (UN),rats; [4],0.106 ± 0.005 mL/min
same,D/P (UN),rats; [4],0.81 ± 0.04
